One data set relates to induced skin tumors. On the set-up: method as in Chiou et al., 2013. The following applies: mice with induced skin tumors; ref Chiou et al., 2013; cited from earlier work.
The next data set concerns induced prostate cancer. The arrangement: method as in Lee et al., 2008. The following applies: nude mice with induced prostate cancer; relative to EGCG; ref Lee et al., 2008; cited from earlier work.
The subject of data set [1] is human lung cancer H460 cells. On the set-up: method as in Heyza et al., 2018. The following applies: compared with EGCG treatment, ref Heyza et al., 2018; cited from earlier work.
Details of data set [2]: method as in Lambert et al., 2006. The settings on record: intragastric administration, CF-1 mice; ref Lambert et al., 2006; cited from earlier work.
Data set [3] is described as follows: Pharmacokinetic study in SD rats after intragastric administration of pro-EGCG, plasma by UPLC-Qtof-MS. Format: in vivo, Sprague Dawley (SD) rats. As for the experimental part: Fourteen to 16-weeks old female Sprague Dawley (SD) rats at reproductive age and of approximately 250 g were grouped in different cages in an air-conditioned room (22 ± 2°C) with a 12-h controlled lighting cycle. The SD rats were fed with standard chow and given free access to water. They were acclimatized for 1 week before the experiment. The study was approved by the Animal Experimentation Ethics Committee of the Chinese University of Hong Kong and was performed according to institutional guidelines. For validation studies, the rats were fasted overnight and then anesthetized by inhaling isoflurane (Baxter, IL, United States) for 15 min. Blank blood samples, approximately 10 mL, were withdrawn by cardiac puncture after experiments and before sacrifice.
Venous blood drawn from the SD rats was stored in an EDTA tube in an […] ice bath for not more than 10 min and centrifuged at 1780 × g and […] for 10 min. Plasma was aliquoted in 50 μL, mixed with 6 µL formic acid, and either immediately processed or stored at -80°C.
The extraction procedure was modified from our previous study ([Chu et al., 2014]). A plasma aliquot was spiked with 2.5 µL of 100 μg/mL pro-EGCG internal standard and mixed with 300 µL of isopropanol and 3 µL of formic acid. After vortexing for 2 min and sonicating for 2 min, 1 mL of MTBE and 150 µL magnesium chloride 0.043% solution were added. The mixture was again vortexed for 2 min and sonicated for 2 min. After settling, the mixture was centrifuged at 2,624 × g and 4°C for 10 min. The supernatant was pipetted into a glass tube by a glass Pasteur pipette and avoided touching the protein layer. The remaining aqueous layer was re-extracted by isopropanol and MTBE as described above. The supernatant was mixed with the previous extract and purged to dryness by nitrogen. The dried residues were dissolved in 100 µL methanol, sonicated for 30 s, vortexed for 2 min, and centrifuged at 3,634 × g at 4°C for 15 min. The supernatant was transferred to an HPLC vial for LCMS analysis. Methanol can completely dissolve pro-EGCG and precipitate protein matrix from the residues.
Plasma extract was analyzed by Agilent 6,540 Liquid chromatography-electrospray ionization quadrupole-TOF Mass Spectrometer. The extract, 8 μL, was separated by Waters Cortex UPLC C18 1.6 µm × 2.1 × 150 mm column (Waters, Milford, MA). Mobile phase A was 0.1 mM ammonia solution/acetonitrile/methanol/formic acid [80:15:5:0.2 (v/v/v/v)] and mobile phase B acetonitrile/methanol/0.1 mM ammonia solution/formic acid [92.5:5:2.5:0.2 (v/v/v/v)]. The column temperature was 40°C and the flow rate was 0.4 mL/min. The binary elusion program: 20% B, 0–2 min; 20%–60% B, 2–10 min; 60%–100% B, 10–11 min; 100% B, 11–18 min; 100%–20% B, 18–19 min; 20% B, 19–24 min. Positive electrospray ionization was used with capillary voltage (VCap) at 4500V, nozzle voltage at 1000 V, the gas temperature at 300°C, drying gas at 8 L/min, nebulizer pressure at 40 psi, sheath gas temperature at 300°C, and sheath gas flow at 11 L/min. The acquisition range was 100–1,000 m/z. The exact mass method was used for quantification at the range of 812.2043 ± 0.06 m/z for pro-EGCG ammonium adduct [M + NH4]^+ and 803.2039 ± 0.06 m/z for internal standard pro-EGCG-1–13C8 hydrogen adduct [M + H]^+. The mass was locked by continuous infusion of calibration standards with lock mass calibrated at 922.0 m/z.
For analysis of the metabolites, the predicted masses of pro-EGCG metabolites as calculated from de-acetylation, glucuronidation, sulphation, and methylation were scanned from the chromatogram of the first-hour plasma samples after intragastric administration of pro-EGCG. For a particular metabolite, the predicted target molecular mass of the metabolite was submitted for MS/MS analysis within ± 1 min around the retention time of the peak. The chromatography and mass spectrum conditions were the same as above. The collision energy was set for […] and the daughter ion scan ranged from 100–1,000 Da. […]

Data set [4] in a line: Stability of pro-EGCG in rat plasma (room temperature; esterase inhibitors; formic acid). Format: in vitro ADME. The settings on record: for stability of pro-EGCG in plasma at room temperature: 50 μg/mL pro-EGCG spiked in rat plasma, 0-60 min. As for the experimental part: The stability of pro-EGCG in plasma at room temperature was assessed by spiking 50.0 μg/mL pro-EGCG into three sets of 50 µL plasma samples. Each plasma sample was spiked with 5.0 μg/mL pro-EGCG internal standard at time points 0, 3, 5, 10, 20, 30, and 60 min before snap-frozen by liquid nitrogen. The samples were processed as described above and analyzed by UPLC‐Qtof-MS.
We also evaluated the stabilizing effect of different esterase inhibitors. The inhibitors, 4-(2-aminoethyl-)benzenesulponylfluoride HCL (penfabloc), bis-nitophenyl phosphate (BNPP), N-α-tosyl-L-lysine chloromethylketone HCL (TLCK), and dichlorvos, at plasma level of 30 mM; a mixture of sodium fluoride–potassium oxalate (NaF-KO) at plasma level of 10.0 mg/mL and 8.0 mg/mL; and 6 µL formic acid in 50 µL fresh rat plasma sample were used. Subsequently, pro-EGCG was spiked into the blank rat plasma at 5.0 μg/mL in an ice bath for 10 min. An internal standard, 5.0 μg/mL, was added to the plasma samples and snap-frozen by liquid nitrogen at the 10th minute. Three sets of samples were tested. The samples were processed as above and analyzed by UPLC‐Qtof-MS.
The stability of pro-EGCG in plasma with formic acid was assessed by mixing 6 µL of formic acid with 5.0 μg/mL pro-EGCG in 50 µL plasma and stored in an ice bath. Each three plasma samples were spiked with 5.0 μg/mL pro-EGCG internal standard and snap-frozen by liquid nitrogen at time points 0, 10, 15, 20, 30, 45, and 60 min. The samples were analyzed as described. Stability (%)=calculated concentration of pro−EGCG under different treatment /actual spiked concentration×100%

Data set [5] deals with proteasome activity of breast cancer cells, MDA-MB231. The arrangement: method as in Landis-Piwowar et al., 2007. The settings on record: animal models, relative to EGCG, ref Landis-Piwowar et al., 2007; cited from earlier work.
Data set [6] in a line: Stability of pro-EGCG in processed plasma extracts on storage. Format: physicochemical. The settings on record: 5.0 μg/mL pro-EGCG of processed samples stored at 4°C for 7 days and 4 weeks at -20°C. As for the experimental part:
Three processed plasma samples extracted at 5.0 μg/mL were stored at 4°C for a week. They were tested at t = 0 and 7 days. This duration was selected to ensure the test period is sufficient to cover a batch of samples for analysis in the auto-sampler ([Brodie and Hill, 2002]; [Department of Medical Sciences Ministry of Public Health, 2022]). […] This test period covered common the maximum storage period pending for batches of analysis.

Data set [7] deals with plasma vascular endothelial growth factor (VEGF). The arrangement: method as in Wang et al., 2013. The settings on record: mouse model with induced endometriotic lesions; ref Wang et al., 2013; cited from earlier work.
[8] abbreviates: female, Sprague-Dawley, rat, po, SD rats (n = 3), plasma, within 24 h after intragastric 50 mg/kg pro-EGCG, Mean ± SE.
Setting [9] is: female, Sprague-Dawley, rat, plasma, po, 50 mg/kg, proposed metabolite in rat plasma after intragastric 50 mg/kg pro-EGCG, no standards, not confirmed, read-out: Tmax of pro-EGCG metabolite.

Results on three compounds are retold here after PMC9592989, “Determination of (-)-epigallocatechin-3-gallate octaacetate and its metabolites in plasma of rats for pharmacokinetic study by ultra-performance-liquid-chromatography coupled to quadrupole-time-of-flight-mass-spectrometry” (Frontiers in Pharmacology, 2022).

Like-named read-outs stand apart in the source and are kept apart here.

One may read the Cmax as the highest concentration seen after dosing. Usually AUC stands for concentration integrated over time. As usually defined, the MRT is the average time that molecules of a dose stay in the body.

As for `CC(=O)Oc1cc(OC(C)=O)c2c(c1)O[C@H](c1cc(OC(C)=O)c(OC(C)=O)c(OC(C)=O)c1)[C@H](OC(=O)c1cc(OC(C)=O)c(OC(C)=O)c(OC(C)=O)c1)C2` [pro-EGCG, (-)-Epigallocatechin-gallate octaacetate], the “average number of tumors per mouse” value with induced skin tumors is listed as “three folds lower”. For the same compound, the tumor incidences result in the data set with induced skin tumors is reported as “three folds lower”. The “tumor volume smaller after pro-EGCG treatment than EGCG treatment” value in the data set on induced prostate cancer is recorded as 40.1%. The “half-maximal inhibitory concentration (IC50) of clonogenicity” value in data set [1] is listed as “slightly lower”. The “bioavailability of EGCG compared with EGCG administered at equimolar doses” value in [2] is “higher”. Moreover, the Cmax stood at 67 ± 0.04 ng/mL in [3] (female, Sprague-Dawley, oral, 50 mg/kg, non-compartmental analysis, rat plasma (n = 3) over 24 h) and 67 ± 40 ng/mL in data set [3] (setting [8]). In addition, the Tmax in data set [3] (female, Sprague-Dawley, rat, plasma, po, 50 mg/kg, SD rats (n = 3), plasma, within 24 h after intragastric 50 mg/kg pro-EGCG, Mean ± SE, read-out: Tmax) worked out at 1.33 ± 0.33 h; in data set [3] (female, Sprague-Dawley, rat, plasma, po, 50 mg/kg, oral administration, SD rats, 50 mg/kg pro-EGCG, read-out: time-of-maximum-concentration (Tmax)), 1.33 h. Moreover, in [3] (female, Sprague-Dawley, rat, plasma, oral administration, SD rats, 50 mg/kg pro-EGCG, read-out: area-under-curve (AUC)), the AUC was 200 ± 50 ng·h/mL. In [3] (setting [8]), this compound displayed an MRT of 12.9 ± 6.4 h. Also, the k el in data set [3] (female, Sprague-Dawley, rat, po, SD rats (n = 3), plasma, within 24 h after intragastric 50 mg/kg pro-EGCG, Mean ± SE, read-out: Lambda Z (converted)) was 5.56e-05 s⁻¹. In data set [3] (oral administration, SD rats, 50 mg/kg pro-EGCG), this compound showed an elimination-rate of 0.20 ± 0.11 h⁻¹. Moreover, the figures for the “stability of pro-EGCG in plasma at room temperature” value in [4] and in [4] (listed as Pro-EGCG) were “rapidly degraded” and “unstable”, respectively. Moreover, the pro-EGCG remaining in [4] (formic acid treated plasma (6 µL in 50 µL), 5.0 μg/mL, 10 min in an ice bath, Mean ± SD, n = 3) was found to be 103 ± 3.6%. For the same compound, the pro-EGCG left result in data set [4] (other esterase inhibitors treated plasma (TLCK, BNPP, dichlorvos, pefabloc 30 mM; NaF-KO), 5.0 μg/mL, 10 min in an ice bath) was “less than 22%”. Also, the “potency in inhibiting proteasome activity compared to the equivalent amount of EGCG” value in [5] was “more than two-fold”. In [6], the Pro-EGCG remained result is “above 95%”. In [7], the “plasma VEGF concentration relative to the concentration treated by EGCG” value was “two-thirds”.

Regarding `CC(=O)Oc1cc([C@H]2Oc3cc(O)cc(O)c3C[C@H]2OC(=O)c2cc(O)c(O)c(O)c2)cc(O)c1OC(C)=O` [EGCG-2Ac, (-)-epigallocatechin-gallate (EGCG) diacetates], in data set [3] (setting [9]), the Tmax is about 1 h.

For `CC(=O)Oc1cc([C@H]2Oc3cc(O)cc(O)c3C[C@H]2OC(=O)c2cc(O)c(O)c(O)c2)cc(OC(C)=O)c1OC(C)=O` [EGCG-3Ac, EGCG triacetates], the Tmax in [3] (setting [9]) is about 5 h. Moreover, the “degradation of EGCG-3Ac (production rate of EGCG-2Ac)” value in [3] (rat plasma profile after intragastric 50 mg/kg pro-EGCG, peak ratio to internal standard) is “about 1.25 × 10^−5 EGCG-3Ac/IS/hr”.
